Experimental data from PubChem BioAssay (NCI).
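Step 1: Grow cells in 96-well plates. Step 2: Expose to compound for 48 hours at 5 concentrations. Step 3: Interpolate endpoints linearly; if unreached, use highest concentration. GI50 is the concentration that inhibits growth by half. The concentration for full growth arrest is given as TGI.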

Legend:
Assay in all cases: DTP human tumour cell line panel, 48 h
IGROV1 ovarian = test system: IGROV1 ovarian
SNB-75 CNS = test system: SNB-75 CNS
SNB-19 CNS = test system: SNB-19 CNS
DU-145 prostate = test system: DU-145 prostate
CCRF-CEM leukemia = test system: CCRF-CEM leukemia
NCI-H460 lung = test system: NCI-H460 lung
HOP-92 NSCLC = test system: HOP-92 NSCLC
OVCAR-3 ovarian = test system: OVCAR-3 ovarian
SF-295 CNS = test system: SF-295 CNS
HL-60(TB) leukemia = test system: HL-60(TB) leukemia
SK-MEL-28 melanoma = test system: SK-MEL-28 melanoma
A549 NSCLC = test system: A549 NSCLC
MCF7 breast = test system: MCF7 breast
COLO 205 colon = test system: COLO 205 colon
PC-3 prostate = test system: PC-3 prostate
SF-539 CNS = test system: SF-539 CNS
UACC-62 melanoma = test system: UACC-62 melanoma
NCI-H226 lung = test system: NCI-H226 lung
MALME-3M melanoma = test system: MALME-3M melanoma
OVCAR-5 ovarian = test system: OVCAR-5 ovarian
SK-MEL-5 melanoma = test system: SK-MEL-5 melanoma
A498 renal = test system: A498 renal
U251 CNS = test system: U251 CNS
MOLT-4 leukemia = test system: MOLT-4 leukemia
ACHN renal = test system: ACHN renal
OVCAR-8 ovarian = test system: OVCAR-8 ovarian
SW-620 colon = test system: SW-620 colon
BT-549 breast = test system: BT-549 breast
OVCAR-4 ovarian = test system: OVCAR-4 ovarian
K-562 leukemia = test system: K-562 leukemia
RXF 393 renal = test system: RXF 393 renal
SR leukemia = test system: SR leukemia
HCT-15 colon = test system: HCT-15 colon
LOX IMVI melanoma = test system: LOX IMVI melanoma
HOP-62 NSCLC = test system: HOP-62 NSCLC
MDA-MB-435 = test system: MDA-MB-435
HS 578T breast = test system: HS 578T breast
KM12 colon = test system: KM12 colon
T-47D breast = test system: T-47D breast
SN12C renal = test system: SN12C renal
SK-MEL-2 melanoma = test system: SK-MEL-2 melanoma
RPMI-8226 leukemia = test system: RPMI-8226 leukemia
NCI/ADR-RES ovarian = test system: NCI/ADR-RES ovarian
CAKI-1 renal = test system: CAKI-1 renal
HCC-2998 colon = test system: HCC-2998 colon
NCI-H522 lung = test system: NCI-H522 lung
SF-268 CNS = test system: SF-268 CNS
EKVX NSCLC = test system: EKVX NSCLC
TK-10 renal = test system: TK-10 renal
SK-OV-3 ovarian = test system: SK-OV-3 ovarian
UACC-257 melanoma = test system: UACC-257 melanoma
MDA-MB-231 breast = test system: MDA-MB-231 breast

Q: What does the source list for `COc1cccc(CNCCN2C(=O)c3ccc4c5c(ccc(c35)C2=O)C(=O)N(CCNCc2cccc(OC)c2)C4=O)c1`?
A: GI50 (IGROV1 ovarian): 2360 nM; TGI (IGROV1 ovarian): 6.34 µM; GI50 (SNB-75 CNS): 11.2 µM; TGI (SNB-75 CNS): 28 µM; GI50 (SNB-19 CNS): 2880 nM; TGI (SNB-19 CNS): 10.4 µM; GI50 (DU-145 prostate): 3.94 µM; TGI (DU-145 prostate): 14.9 µM; GI50 (CCRF-CEM leukemia): 3.46 µM; TGI (CCRF-CEM leukemia): 13.5 µM; GI50 (NCI-H460 lung): 1960 nM; TGI (NCI-H460 lung): 4.33 µM; GI50 (HOP-92 NSCLC): 18.9 µM; TGI (HOP-92 NSCLC): 41.2 µM; GI50 (OVCAR-3 ovarian): 2250 nM; TGI (OVCAR-3 ovarian): 5.93 µM; GI50 (SF-295 CNS): 1820 nM; TGI (SF-295 CNS): 3.88 µM; GI50 (HL-60(TB) leukemia): 2560 nM; TGI (HL-60(TB) leukemia): 4.99 µM; GI50 (SK-MEL-28 melanoma): 2220 nM; TGI (SK-MEL-28 melanoma): 5.2 µM; GI50 (A549 NSCLC): 2490 nM; TGI (A549 NSCLC): 5.83 µM; GI50 (MCF7 breast): 1810 nM; TGI (MCF7 breast): 4.39 µM; GI50 (COLO 205 colon): 1530 nM; TGI (COLO 205 colon): 2950 nM; GI50 (PC-3 prostate): 3.87 µM; TGI (PC-3 prostate): 21.6 µM; GI50 (SF-539 CNS): 1790 nM; TGI (SF-539 CNS): 3.4 µM; GI50 (UACC-62 melanoma): 1900 nM; TGI (UACC-62 melanoma): 4 µM; GI50 (NCI-H226 lung): 34 µM; TGI (NCI-H226 lung): > 100 µM; GI50 (MALME-3M melanoma): 1800 nM; TGI (MALME-3M melanoma): 3.76 µM; GI50 (OVCAR-5 ovarian): 21.1 µM; TGI (OVCAR-5 ovarian): 49.6 µM; GI50 (SK-MEL-5 melanoma): 1520 nM; TGI (SK-MEL-5 melanoma): 2860 nM; GI50 (A498 renal): 14.8 µM; TGI (A498 renal): 28.9 µM; GI50 (U251 CNS): 2420 nM; TGI (U251 CNS): 5.16 µM; GI50 (MOLT-4 leukemia): 14.7 µM; TGI (MOLT-4 leukemia): 47.9 µM; GI50 (ACHN renal): 6.28 µM; TGI (ACHN renal): 27.5 µM; GI50 (OVCAR-8 ovarian): 2150 nM; TGI (OVCAR-8 ovarian): 4.85 µM; GI50 (SW-620 colon): 2150 nM; TGI (SW-620 colon): 5.32 µM; GI50 (BT-549 breast): 2430 nM; TGI (BT-549 breast): 6.12 µM; GI50 (OVCAR-4 ovarian): 1400 nM; TGI (OVCAR-4 ovarian): 2710 nM; GI50 (K-562 leukemia): 3.03 µM; TGI (K-562 leukemia): 8.52 µM; GI50 (RXF 393 renal): 2160 nM; TGI (RXF 393 renal): 7.58 µM; GI50 (SR leukemia): 332 nM; TGI (SR leukemia): 2570 nM; GI50 (HCT-15 colon): 2100 nM; TGI (HCT-15 colon): 4.82 µM; GI50 (LOX IMVI melanoma): 1790 nM; TGI (LOX IMVI melanoma): 3.53 µM; GI50 (HOP-62 NSCLC): 15 µM; TGI (HOP-62 NSCLC): 30.8 µM; GI50 (MDA-MB-435): 1840 nM; TGI (MDA-MB-435): 3.48 µM; GI50 (HS 578T breast): 19 µM; TGI (HS 578T breast): 52.8 µM; GI50 (KM12 colon): 1750 nM; TGI (KM12 colon): 3.93 µM; GI50 (T-47D breast): 2050 nM; TGI (T-47D breast): 5.3 µM; GI50 (SN12C renal): 1670 nM; TGI (SN12C renal): 3.24 µM; GI50 (SK-MEL-2 melanoma): 1890 nM; TGI (SK-MEL-2 melanoma): 3.85 µM; GI50 (RPMI-8226 leukemia): 2840 nM; TGI (RPMI-8226 leukemia): 7.45 µM; GI50 (NCI/ADR-RES ovarian): 2990 nM; TGI (NCI/ADR-RES ovarian): > 100 µM; GI50 (CAKI-1 renal): 2610 nM; TGI (CAKI-1 renal): 8.27 µM; GI50 (HCC-2998 colon): 5.21 µM; TGI (HCC-2998 colon): 19.1 µM; GI50 (NCI-H522 lung): 1810 nM; TGI (NCI-H522 lung): 3.46 µM; GI50 (SF-268 CNS): 4.09 µM; TGI (SF-268 CNS): 27 µM; GI50 (EKVX NSCLC): 15.7 µM; TGI (EKVX NSCLC): 35.4 µM; GI50 (TK-10 renal): 1850 nM; TGI (TK-10 renal): 4.31 µM; GI50 (SK-OV-3 ovarian): 19.1 µM; TGI (SK-OV-3 ovarian): 35.5 µM; GI50 (UACC-257 melanoma): 2090 nM; TGI (UACC-257 melanoma): 3.82 µM; GI50 (MDA-MB-231 breast): 2390 nM; TGI (MDA-MB-231 breast): 6.61 µM
